From patent publication US11945822B2, “Pyrazolo-triazine and/or pyrazolo-pxrimidine derivatives as selective inhibitor of cyclin dependent kinase” (QURIENT CO., LTD., priority 2018, dated 2024)

Assays:
CDK1/Cyclin B = target: T1, CDK1/Cyclin B (Homo sapiens, UniProt P06493); assay: Enzymatic assay for CDK1 (FRET based LANCE Ultra kinase assay); type: biochemical; details: read-out: CDK1 enzymatic activity (IC50 range)
T1 construct: purchased Invitrogen PR4768C
Method in brief: (§1)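 TR-FRET (LANCE Ultra) kinase assay at ATP Km, ULight-MBP peptide substrate (68 nM), 8-dose 4-fold compound series in DMSO. Enzymes: […]; 60 min at 23° C., stopped with EDTA plus Eu-anti-phospho-MBP antibody, read 665/615 nm after 60 min.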

CDK2/Cyclin A = target: T2, CDK2/Cyclin A (Homo sapiens, UniProt P24941); assay: Enzymatic assay for CDK2 (FRET based LANCE Ultra kinase assay); type: biochemical; details: read-out: CDK2 enzymatic activity (IC50 range)
T2 construct: purchased Invitrogen PV6290
Method in brief: as §1

CDK5/p25 = target: T3, CDK5/p25 (Homo sapiens, UniProt Q00535); assay: Enzymatic assay for CDK5 (FRET based LANCE Ultra kinase assay); type: biochemical; details: read-out: CDK5 enzymatic activity (IC50 range)
T3 construct: purchased Invitrogen PR8543B
T3 sequence (Q00535 whole entry): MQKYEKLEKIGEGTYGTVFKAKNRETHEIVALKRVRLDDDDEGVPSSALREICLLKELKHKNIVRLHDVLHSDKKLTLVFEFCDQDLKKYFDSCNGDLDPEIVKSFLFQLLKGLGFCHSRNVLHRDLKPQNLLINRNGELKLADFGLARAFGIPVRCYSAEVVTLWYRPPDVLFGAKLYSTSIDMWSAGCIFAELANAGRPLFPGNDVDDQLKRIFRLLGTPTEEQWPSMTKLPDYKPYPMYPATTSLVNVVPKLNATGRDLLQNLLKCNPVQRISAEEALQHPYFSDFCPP
T3 sequence (Q15078 99-307 partner limits assumed): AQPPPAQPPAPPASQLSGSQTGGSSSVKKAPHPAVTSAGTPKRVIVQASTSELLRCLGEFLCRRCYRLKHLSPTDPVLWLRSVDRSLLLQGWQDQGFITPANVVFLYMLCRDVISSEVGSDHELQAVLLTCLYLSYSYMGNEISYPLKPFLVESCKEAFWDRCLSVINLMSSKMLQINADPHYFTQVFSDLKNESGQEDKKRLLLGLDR
Method in brief: as §1

CDK7/Cyclin H/MNAT1 = target: T4, CDK7/Cyclin H/MNAT1 (Homo sapiens, UniProt P50613); assay: Enzymatic assay for CDK7 (FRET based LANCE Ultra kinase assay); type: biochemical; details: for IC50: read-out: CDK7 enzymatic activity (IC50 range)
T4 construct: purchased Invitrogen PR6749B
T4 sequence (P50613 whole entry): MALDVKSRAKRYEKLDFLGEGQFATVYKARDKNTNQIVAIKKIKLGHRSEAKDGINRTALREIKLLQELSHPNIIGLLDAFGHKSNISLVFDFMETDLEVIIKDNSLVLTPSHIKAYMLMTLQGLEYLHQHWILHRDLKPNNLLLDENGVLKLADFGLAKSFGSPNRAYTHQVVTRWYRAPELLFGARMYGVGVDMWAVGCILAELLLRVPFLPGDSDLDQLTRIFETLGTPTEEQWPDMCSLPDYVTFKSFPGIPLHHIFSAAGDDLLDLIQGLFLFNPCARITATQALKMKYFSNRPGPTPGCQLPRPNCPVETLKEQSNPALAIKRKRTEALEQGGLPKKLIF
T4 sequence (P51946 whole entry partner): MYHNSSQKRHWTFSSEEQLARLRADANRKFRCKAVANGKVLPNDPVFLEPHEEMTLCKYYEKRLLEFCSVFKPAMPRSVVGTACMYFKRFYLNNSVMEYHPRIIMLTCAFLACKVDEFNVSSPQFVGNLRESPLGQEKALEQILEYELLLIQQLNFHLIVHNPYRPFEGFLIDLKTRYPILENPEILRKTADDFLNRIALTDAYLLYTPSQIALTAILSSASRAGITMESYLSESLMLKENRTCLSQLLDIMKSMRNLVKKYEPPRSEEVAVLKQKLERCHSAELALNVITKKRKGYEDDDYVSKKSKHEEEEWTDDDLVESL
T4 sequence (P51948 whole entry partner): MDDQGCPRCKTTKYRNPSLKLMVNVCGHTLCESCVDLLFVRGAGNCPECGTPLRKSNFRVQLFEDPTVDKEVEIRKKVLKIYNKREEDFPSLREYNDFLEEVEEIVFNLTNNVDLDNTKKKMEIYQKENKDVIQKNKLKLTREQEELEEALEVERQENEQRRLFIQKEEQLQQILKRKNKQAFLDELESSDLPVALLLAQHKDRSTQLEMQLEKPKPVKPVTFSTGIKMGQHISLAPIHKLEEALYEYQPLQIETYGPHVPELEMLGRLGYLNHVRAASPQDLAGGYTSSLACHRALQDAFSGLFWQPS
Method in brief: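 Inhibition was measured at Km ATP by time-resolved FRET between a Eu anti-phospho antibody and a phosphorylated ULight peptide. The enzyme was the purified CDK7/cyclin complex, and data were curve-fitted.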

H460 = assay: Cellular H460 viability assay (CellTiter-Glo, 72 hours); type: cell-based; details: Homo sapiens, NCI-H460
Method in brief: (§2)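 Luminescent ATP read-out (CellTiter-Glo) after 72 h compound exposure at 37 °C/5% CO2; duplicate wells; vehicle control DMSO <0.1% final; seeding density set per cell line.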

MV4-11 = assay: Cellular MV4-11 viability assay (CellTiter-Glo, 72 hours); type: cell-based; details: Homo sapiens
Method in brief: as §2

RPMI-8226 = assay: Cellular RPMI-8226 viability assay (CellTiter-Glo, 72 hours); type: cell-based; details: Homo sapiens
Procedure: All cell lines were routinely tested for mycoplasma.
The effect of the CDK7 inhibitor to inhibit the growth of target cancer cells was evaluated through the 72 hours time period of viability assay. Briefly, the candidate cell line ware plated in 96 well plate at the following density of cells respectively. […] DMSO solvent without compound served as a control and final DMSO concentration less than 0.1%. After 72 hours of incubation at 37° C., 5% CO2 incubator, cells were analyzed for the viability using the CellTiter-Glo Luminescent Cell Viability Assay (Promega, Cat #G7570). All viability assays were performed in duplicate and Luminescence was read using an Envision (Perkin Elmer, USA). Data was analyzed using XLfit software.

HCT116 = assay: Cellular HCT116 viability assay (CellTiter-Glo, 72 hours); type: cell-based; details: Homo sapiens, HCT-116
Method in brief: as §2

T1 sequence (P06493 whole entry): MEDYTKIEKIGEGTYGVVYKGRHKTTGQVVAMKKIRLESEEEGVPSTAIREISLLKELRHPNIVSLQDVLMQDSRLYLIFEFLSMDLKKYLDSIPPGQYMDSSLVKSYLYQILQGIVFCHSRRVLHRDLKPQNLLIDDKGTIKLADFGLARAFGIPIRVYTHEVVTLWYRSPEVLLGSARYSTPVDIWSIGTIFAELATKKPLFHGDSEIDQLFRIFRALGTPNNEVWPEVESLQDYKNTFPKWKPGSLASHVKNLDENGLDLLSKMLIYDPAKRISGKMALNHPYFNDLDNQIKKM
T1 sequence (P14635 whole entry partner): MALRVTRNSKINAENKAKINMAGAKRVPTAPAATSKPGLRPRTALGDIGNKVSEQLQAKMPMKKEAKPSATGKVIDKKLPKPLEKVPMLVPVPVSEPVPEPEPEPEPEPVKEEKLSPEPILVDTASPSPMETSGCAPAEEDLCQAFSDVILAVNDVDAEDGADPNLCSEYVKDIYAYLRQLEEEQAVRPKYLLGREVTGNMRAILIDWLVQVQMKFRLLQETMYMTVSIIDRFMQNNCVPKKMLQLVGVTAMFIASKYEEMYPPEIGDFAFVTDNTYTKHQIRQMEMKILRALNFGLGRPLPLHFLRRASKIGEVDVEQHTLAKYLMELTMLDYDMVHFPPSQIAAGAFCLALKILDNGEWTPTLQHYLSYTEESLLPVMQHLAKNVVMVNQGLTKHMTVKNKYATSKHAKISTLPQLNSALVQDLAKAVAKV

Compound | IC50 (CDK1/Cyclin B) [nM] | IC50 (CDK2/Cyclin A) [nM] | IC50 (CDK5/p25) [nM] | CDK1/CDK7: Selectivity of CDK7 inhibition over CDK1 inhibition (CDK7/Cyclin H/MNAT1) | IC50 (CDK7/Cyclin H/MNAT1) [nM] | IC50 (H460) [nM] | IC50 (MV4-11) [nM] | IC50 (RPMI-8226) [nM] | IC50 (HCT116) [nM] | CDK2/CDK7: Selectivity of CDK7 inhibition over CDK2 inhibition (CDK7/Cyclin H/MNAT1) | CDK5/CDK7: Selectivity of CDK7 inhibition over CDK5 inhibition (CDK7/Cyclin H/MNAT1)
CC(C)c1cnn2c(NCc3ccccc3-c3[nH]c4ccccc4c3Cl)nc(N3CCC(N)CC3)nc12 [Compound 119] | > 1000 | 100 to 1000 | 100 to 1000 | A (A=greater than 200 fold) | < 100 | < 1000 | 1000 to 10000 | 1000 to 10000 | – | B (B=less than 200 fold, but greater than 20 fold) | B (B=less than 200 fold, but greater than 20 fold)
CC(C)c1cnn2c(NCc3ccccc3-c3cn4c(n3)CCCC4)nc(N3CCC(N)CC3)nc12 [Compound 122] | > 1000 | 100 to 1000 | 100 to 1000 | A (A=greater than 200 fold) | < 100 | < 1000 | < 1000 | < 1000 | < 1000 | B (B=less than 200 fold, but greater than 20 fold) | B (B=less than 200 fold, but greater than 20 fold)
CC(C)c1cnn2c(NCc3ccccc3-c3ccc4[nH]cnc4c3)nc(N3CCC(N)CC3)nc12 [Compound 123] | 100 to 1000 | 100 to 1000 | < 100 | B (B=less than 200 fold, but greater than 20 fold) | < 100 | < 1000 | < 1000 | < 1000 | – | B (B=less than 200 fold, but greater than 20 fold) | C (C=less than 20 fold)
CC(C)c1cnn2c(NCc3ccccc3-c3cn4ccc(F)cc4n3)nc(N3CCC(N)CC3)nc12 [Compound 124] | 100 to 1000 | 100 to 1000 | < 100 | B (B=less than 200 fold, but greater than 20 fold) | < 100 | < 1000 | < 1000 | < 1000 | < 1000 | B (B=less than 200 fold, but greater than 20 fold) | C (C=less than 20 fold)
CC(C)c1cnn2c(NCc3ccccc3N3Cc4ccccc4C3)nc(N3CCC(N)CC3)nc12 [Compound 128] | 100 to 1000 | 100 to 1000 | < 100 | B (B=less than 200 fold, but greater than 20 fold) | < 100 | < 1000 | < 1000 | < 1000 | – | B (B=less than 200 fold, but greater than 20 fold) | C (C=less than 20 fold)
CC(C)c1cnn2c(NCc3ccccc3-n3cc4c(n3)CCOC4)nc(N3CCC(N)CC3)nc12 [Compound 133] | > 1000 | 100 to 1000 | 100 to 1000 | A (A=greater than 200 fold) | < 100 | < 1000 | < 1000 | < 1000 | < 1000 | B (B=less than 200 fold, but greater than 20 fold) | B (B=less than 200 fold, but greater than 20 fold)
CC(C)c1cnn2c(NCc3ccccc3-c3ccc4c(c3)NC(=O)C(C)(C)O4)nc(N3CCC(N)CC3)nc12 [Compound 138] | 100 to 1000 | 100 to 1000 | < 100 | A (A=greater than 200 fold) | < 100 | < 1000 | – | < 1000 | – | B (B=less than 200 fold, but greater than 20 fold) | C (C=less than 20 fold)
CC(C)c1cnn2c(NCc3ccccc3-n3cc4ccncc4n3)nc(N3CCC(N)CC3)nc12 [Compound 139] | > 1000 | 100 to 1000 | 100 to 1000 | A (A=greater than 200 fold) | < 100 | < 1000 | < 1000 | < 1000 | < 1000 | B (B=less than 200 fold, but greater than 20 fold) | B (B=less than 200 fold, but greater than 20 fold)
CC(C)c1cnn2c(NCc3ccccc3-c3ccc4[nH]c(=O)[nH]c4c3)nc(N3CCC(N)CC3)nc12 [Compound 140] | 100 to 1000 | 100 to 1000 | < 100 | B (B=less than 200 fold, but greater than 20 fold) | < 100 | 1000 to 10000 | < 1000 | 1000 to 10000 | – | B (B=less than 200 fold, but greater than 20 fold) | C (C=less than 20 fold)
CC(C)c1cnn2c(NCc3ccccc3-c3ccc4[nH]c(NC(=O)C5CC5)nc4c3)nc(N3CCC(N)CC3)nc12 [Compound 141] | 100 to 1000 | 100 to 1000 | < 100 | B (B=less than 200 fold, but greater than 20 fold) | < 100 | 1000 to 10000 | – | < 1000 | – | B (B=less than 200 fold, but greater than 20 fold) | C (C=less than 20 fold)

Second part, led by results:

IC50 (CDK1/Cyclin B) [nM] | IC50 (CDK2/Cyclin A) [nM] | IC50 (CDK5/p25) [nM] | CDK1/CDK7: Selectivity of CDK7 inhibition over CDK1 inhibition (CDK7/Cyclin H/MNAT1) | IC50 (CDK7/Cyclin H/MNAT1) [nM] | IC50 (H460) [nM] | IC50 (MV4-11) [nM] | IC50 (RPMI-8226) [nM] | IC50 (HCT116) [nM] | Compound | CDK2/CDK7: Selectivity of CDK7 inhibition over CDK2 inhibition (CDK7/Cyclin H/MNAT1) | CDK5/CDK7: Selectivity of CDK7 inhibition over CDK5 inhibition (CDK7/Cyclin H/MNAT1)
> 1000 | 100 to 1000 | 100 to 1000 | A (A=greater than 200 fold) | < 100 | < 1000 | < 1000 | < 1000 | – | CC(C)c1cnn2c(NCc3ccccc3-n3cc4cc(C#N)ccc4n3)nc(N3CCC(N)CC3)nc12 [Compound 120] | A (A=greater than 200 fold) | B (B=less than 200 fold, but greater than 20 fold)
> 1000 | > 1000 | > 1000 | A (A=greater than 200 fold) | < 100 | 1000 to 10000 | – | 1000 to 10000 | – | CC(C)c1cnn2c(NCc3ccccc3N3CC4CCCCC4C3)nc(N3CCC(N)CC3)nc12 (stereo not drawn) [Compound 135] | B (B=less than 200 fold, but greater than 20 fold) | B (B=less than 200 fold, but greater than 20 fold)
> 1000 | > 1000 | 100 to 1000 | A (A=greater than 200 fold) | < 100 | 1000 to 10000 | < 1000 | 1000 to 10000 | < 1000 | CC(C)c1cnn2c(NCc3c(Cl)cccc3-c3ccc4[nH]cnc4c3)nc(N3CCC(N)CC3)nc12 [Compound 136] | A (A=greater than 200 fold) | B (B=less than 200 fold, but greater than 20 fold)
100 to 1000 | < 100 | < 100 | C (C=less than 20 fold) | < 100 | < 1000 | – | < 1000 | – | CC(C)c1cnn2c(NCc3ccccc3-c3ccc4[nH]ncc4c3)nc(N3CCC(N)CC3)nc12 [Compound 137] | C (C=less than 20 fold) | C (C=less than 20 fold)
> 1000 | 100 to 1000 | 100 to 1000 | A (A=greater than 200 fold) | < 100 | 1000 to 10000 | – | 1000 to 10000 | – | CC(C)c1cnn2c(NCc3cccc4ccc(N)nc34)nc(N3CCC(N)CC3)nc12 [Compound 142] | B (B=less than 200 fold, but greater than 20 fold) | B (B=less than 200 fold, but greater than 20 fold)
